In ChEMBL document CHEMBL1201862, “PubChem BioAssay data set” (2004):
One block for each compound: values may come before it. Active and inactive are the calls of the source.

How the values were obtained:
[1] = target: T1, Voltage-gated N-type calcium channel alpha-1B subunit/Amyloid beta A4 precursor protein-binding family A member 1 (Homo sapiens, UniProt Q00975+Q02410); assay type: protein assay
[2] = target: T1, Voltage-gated N-type calcium channel alpha-1B subunit/Amyloid beta A4 precursor protein-binding family A member 1; assay type: protein assay; remark: listed apart in the source
[3] = viability of uninfected HEp-2 cells – cell-based, HTS, cytotoxicity control for RSV inhibitor project, dose response (AID 2410); assay type: functional; conditions: human respiratory syncytial virus
CAAX prenyl protease 2 [4] = target: T2, CAAX prenyl protease 2 (Saccharomyces cerevisiae S288c, UniProt Q03530); assay type: biochemical
T2 sequence (Q03530 whole entry): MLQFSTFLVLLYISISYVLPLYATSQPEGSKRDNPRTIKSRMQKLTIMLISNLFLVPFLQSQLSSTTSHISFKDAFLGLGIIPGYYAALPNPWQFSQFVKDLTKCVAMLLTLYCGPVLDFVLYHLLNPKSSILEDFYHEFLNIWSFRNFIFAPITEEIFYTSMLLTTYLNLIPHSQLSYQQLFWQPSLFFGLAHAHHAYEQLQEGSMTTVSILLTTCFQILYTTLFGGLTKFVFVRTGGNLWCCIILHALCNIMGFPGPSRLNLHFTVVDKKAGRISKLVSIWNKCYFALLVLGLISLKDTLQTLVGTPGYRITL

CAAX prenyl protease 1 = CAAX prenyl protease 1 (Saccharomyces cerevisiae S288c, UniProt P47154); assay: yeast CAAX protease Ste24 inhibition – biochemical, S. cerevisiae, plate reader, cherry-pick, dose response (AID 488815)
CAAX prenyl protease 2 [5] = target: T3, CAAX prenyl protease 2 (Homo sapiens, UniProt Q9Y256); assay: inhibition of Ras-converting CAAX protease Rce1 – biochemical, yeast membranes, quenched-peptide fluorescence, cherry-pick, dose response (AID 588849)
T3 sequence (Q9Y256 whole entry): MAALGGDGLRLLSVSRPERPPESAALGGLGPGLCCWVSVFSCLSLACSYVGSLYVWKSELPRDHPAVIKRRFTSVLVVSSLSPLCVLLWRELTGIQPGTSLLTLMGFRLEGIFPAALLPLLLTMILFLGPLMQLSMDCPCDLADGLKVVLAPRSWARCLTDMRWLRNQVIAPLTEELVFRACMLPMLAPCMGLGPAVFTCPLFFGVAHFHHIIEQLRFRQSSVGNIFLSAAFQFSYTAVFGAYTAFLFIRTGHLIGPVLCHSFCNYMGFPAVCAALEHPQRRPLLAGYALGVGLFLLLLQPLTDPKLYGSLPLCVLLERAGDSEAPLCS

Trypsin = Trypsin (Sus scrofa, UniProt P00761); assay: trypsin protease activity blockade – biochemical, quenched peptide fluorescence, cherry-pick, selectivity assay for Rce1 protease inhibitor project, dose response (AID 488789)
Chain of Trypsin (P00761 whole entry): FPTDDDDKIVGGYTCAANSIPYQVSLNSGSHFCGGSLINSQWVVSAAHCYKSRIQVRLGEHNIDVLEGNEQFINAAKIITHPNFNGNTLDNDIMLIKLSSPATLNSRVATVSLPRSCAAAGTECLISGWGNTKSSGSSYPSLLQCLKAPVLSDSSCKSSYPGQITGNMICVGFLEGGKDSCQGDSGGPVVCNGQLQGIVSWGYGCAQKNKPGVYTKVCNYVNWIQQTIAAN

Cytochrome P450 2C19 = Cytochrome P450 2C19 (Homo sapiens, UniProt P33261); assay: Cytochrome panel assay with activity outcomes. Panel member name: p450-cyp2c19 Compounds with AC50 equal or less than 10 uM are considered active; assay type: functional; conditions: read-out: AC50
Chain of Cytochrome P450 2C19 (P33261 whole entry): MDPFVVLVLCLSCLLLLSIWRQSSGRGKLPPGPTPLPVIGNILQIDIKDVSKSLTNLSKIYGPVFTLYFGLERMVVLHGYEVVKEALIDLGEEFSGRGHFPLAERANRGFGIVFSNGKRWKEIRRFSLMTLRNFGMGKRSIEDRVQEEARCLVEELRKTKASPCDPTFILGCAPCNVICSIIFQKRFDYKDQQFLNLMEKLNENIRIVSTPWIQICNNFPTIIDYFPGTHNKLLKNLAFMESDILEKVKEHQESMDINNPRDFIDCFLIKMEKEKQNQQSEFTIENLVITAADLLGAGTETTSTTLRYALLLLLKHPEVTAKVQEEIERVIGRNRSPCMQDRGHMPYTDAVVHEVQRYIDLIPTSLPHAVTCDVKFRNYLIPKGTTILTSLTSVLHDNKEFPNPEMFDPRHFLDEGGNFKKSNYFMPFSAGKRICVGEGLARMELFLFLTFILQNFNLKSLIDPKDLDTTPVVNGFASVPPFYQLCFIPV

Cytochrome P450 2D6 = Cytochrome P450 2D6 (Homo sapiens, UniProt P10635);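 note: CYP2D6 member of a cytochrome P450 panel assay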
[6] = target: T4, RNA-binding protein pos-1 (Caenorhabditis elegans, UniProt G5EF15); assay: disruptors of C. elegans POS-1 RNA interaction – biochemical, fluorescence polarization, dose response (AID 1964);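 note: purified POS-1 fused to maltose binding protein made in E. coli; potency of compounds blocking POS-1 binding to fluorescent RNA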
T4 sequence (G5EF15 whole entry): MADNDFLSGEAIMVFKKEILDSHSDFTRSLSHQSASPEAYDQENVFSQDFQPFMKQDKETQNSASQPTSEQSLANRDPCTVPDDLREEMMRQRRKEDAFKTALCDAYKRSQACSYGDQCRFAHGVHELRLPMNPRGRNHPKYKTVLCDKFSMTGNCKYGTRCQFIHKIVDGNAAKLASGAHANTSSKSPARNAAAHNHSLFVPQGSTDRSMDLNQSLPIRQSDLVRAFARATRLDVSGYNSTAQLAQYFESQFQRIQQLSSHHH

Keap1/Nrf2 = Keap1/Nrf2 (Homo sapiens, UniProt Q14145); assay: disruptors of Keap1 binding to Nrf2 peptide – biochemical, fluorescence polarization, cherry-picked samples, dose response (AID 588683)
[7] = target: T5, Zinc finger protein mex-5 (Caenorhabditis elegans, UniProt Q9XUB2); assay: potency of MEX-5 RNA-binding blockers – biochemical, C. elegans, fluorescence polarization, dose response (AID 1960)
T5 sequence (Q9XUB2 whole entry): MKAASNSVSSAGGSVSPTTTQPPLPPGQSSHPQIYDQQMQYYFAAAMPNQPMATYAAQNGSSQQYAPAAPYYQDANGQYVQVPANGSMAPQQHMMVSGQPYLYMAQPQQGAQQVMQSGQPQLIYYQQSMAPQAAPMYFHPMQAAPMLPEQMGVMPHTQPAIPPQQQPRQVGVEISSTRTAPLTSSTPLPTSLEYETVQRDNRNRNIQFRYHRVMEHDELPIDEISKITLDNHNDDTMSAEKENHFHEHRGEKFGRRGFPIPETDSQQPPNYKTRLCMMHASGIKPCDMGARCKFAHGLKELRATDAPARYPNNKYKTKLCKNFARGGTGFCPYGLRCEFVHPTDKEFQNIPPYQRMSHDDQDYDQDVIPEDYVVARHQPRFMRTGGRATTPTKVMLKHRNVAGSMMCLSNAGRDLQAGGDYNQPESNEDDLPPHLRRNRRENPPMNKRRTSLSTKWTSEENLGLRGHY

Cytochrome P450 3A4 = Cytochrome P450 3A4 (Homo sapiens, UniProt P08684);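 note: CYP3A4 tested as one member of a cytochrome P450 panel screen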
Beta-galactosidase = Beta-galactosidase (Escherichia coli, UniProt Q8VNN2); assay type: functional
[8] = target: T6, Kappa-type opioid receptor (Homo sapiens, UniProt P41145); assay type: functional
T6 sequence (P41145 whole entry): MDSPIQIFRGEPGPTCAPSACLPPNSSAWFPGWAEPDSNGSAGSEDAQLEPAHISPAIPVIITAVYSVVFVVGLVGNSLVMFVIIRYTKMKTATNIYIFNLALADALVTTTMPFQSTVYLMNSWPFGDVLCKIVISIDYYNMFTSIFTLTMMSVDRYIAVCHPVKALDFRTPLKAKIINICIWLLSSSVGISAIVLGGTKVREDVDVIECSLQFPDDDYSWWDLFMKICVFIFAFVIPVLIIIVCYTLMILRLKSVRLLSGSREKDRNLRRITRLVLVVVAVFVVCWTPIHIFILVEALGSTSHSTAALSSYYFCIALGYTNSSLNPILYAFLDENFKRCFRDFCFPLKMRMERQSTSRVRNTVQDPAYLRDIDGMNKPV

[9] = target: T7, Delta-type opioid receptor (Homo sapiens, UniProt P41143); assay: HTS Image-Based Screen for Agonists of the DOR Receptor. [Related pubchem assays (depositor defined):AID1777, AID1786, AID2133]; assay type: functional
T7 sequence (P41143 whole entry): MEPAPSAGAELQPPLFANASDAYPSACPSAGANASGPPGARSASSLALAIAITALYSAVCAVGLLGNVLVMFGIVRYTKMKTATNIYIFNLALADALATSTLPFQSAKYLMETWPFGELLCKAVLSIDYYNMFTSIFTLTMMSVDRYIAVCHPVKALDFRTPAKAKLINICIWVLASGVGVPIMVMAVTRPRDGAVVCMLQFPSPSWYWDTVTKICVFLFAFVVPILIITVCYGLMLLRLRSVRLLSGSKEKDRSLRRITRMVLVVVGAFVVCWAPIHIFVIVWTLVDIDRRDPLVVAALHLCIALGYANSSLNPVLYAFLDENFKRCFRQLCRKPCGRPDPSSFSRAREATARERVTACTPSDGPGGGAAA

[10] = target: T6, Kappa-type opioid receptor; assay type: functional; remark: listed apart in the source
Mu-type opioid receptor = Mu-type opioid receptor (Homo sapiens, UniProt P35372); assay: HTS Image-Based Screen for Agonists of the MOR Receptor. [Related pubchem assays (depositor defined):AID1777, AID1785, AID1786, AID2133]; assay type: functional;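 note: imaging of beta-arrestin GFP recruitment into spots after receptor activation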
Chain of Mu-type opioid receptor (P35372 whole entry): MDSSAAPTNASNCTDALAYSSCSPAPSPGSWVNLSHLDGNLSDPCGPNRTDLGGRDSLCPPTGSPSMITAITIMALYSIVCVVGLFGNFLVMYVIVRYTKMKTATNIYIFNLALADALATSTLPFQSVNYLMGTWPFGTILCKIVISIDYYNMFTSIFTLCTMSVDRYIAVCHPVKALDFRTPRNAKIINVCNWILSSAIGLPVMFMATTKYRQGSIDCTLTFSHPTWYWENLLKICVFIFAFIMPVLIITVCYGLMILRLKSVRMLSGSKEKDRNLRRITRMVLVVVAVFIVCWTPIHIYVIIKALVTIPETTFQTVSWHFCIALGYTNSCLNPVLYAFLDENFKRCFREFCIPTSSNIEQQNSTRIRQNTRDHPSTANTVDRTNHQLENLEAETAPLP

[11] = target: T7, Delta-type opioid receptor; assay: HTS Image-Based Screen for Antagonists of the DOR Receptor. [Related pubchem assays (depositor defined):AID1777, AID1785, AID1786, AID2133]; assay type: functional
H9c2 = assay: cells; assay type: functional, cell-based; conditions: Rattus norvegicus, H9c2, Myocardium;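 note: confirmatory concentration-response retest of ultra-high-throughput screening hits for modulation of myocardial damage; cell death induced by hydrogen peroxide oxidative stress; compound pretreatment for 60 min then peroxide exposure for 2 h; potency is for protecting the cells against peroxide damage rather than for killing them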

T1 sequence (Q00975 whole entry): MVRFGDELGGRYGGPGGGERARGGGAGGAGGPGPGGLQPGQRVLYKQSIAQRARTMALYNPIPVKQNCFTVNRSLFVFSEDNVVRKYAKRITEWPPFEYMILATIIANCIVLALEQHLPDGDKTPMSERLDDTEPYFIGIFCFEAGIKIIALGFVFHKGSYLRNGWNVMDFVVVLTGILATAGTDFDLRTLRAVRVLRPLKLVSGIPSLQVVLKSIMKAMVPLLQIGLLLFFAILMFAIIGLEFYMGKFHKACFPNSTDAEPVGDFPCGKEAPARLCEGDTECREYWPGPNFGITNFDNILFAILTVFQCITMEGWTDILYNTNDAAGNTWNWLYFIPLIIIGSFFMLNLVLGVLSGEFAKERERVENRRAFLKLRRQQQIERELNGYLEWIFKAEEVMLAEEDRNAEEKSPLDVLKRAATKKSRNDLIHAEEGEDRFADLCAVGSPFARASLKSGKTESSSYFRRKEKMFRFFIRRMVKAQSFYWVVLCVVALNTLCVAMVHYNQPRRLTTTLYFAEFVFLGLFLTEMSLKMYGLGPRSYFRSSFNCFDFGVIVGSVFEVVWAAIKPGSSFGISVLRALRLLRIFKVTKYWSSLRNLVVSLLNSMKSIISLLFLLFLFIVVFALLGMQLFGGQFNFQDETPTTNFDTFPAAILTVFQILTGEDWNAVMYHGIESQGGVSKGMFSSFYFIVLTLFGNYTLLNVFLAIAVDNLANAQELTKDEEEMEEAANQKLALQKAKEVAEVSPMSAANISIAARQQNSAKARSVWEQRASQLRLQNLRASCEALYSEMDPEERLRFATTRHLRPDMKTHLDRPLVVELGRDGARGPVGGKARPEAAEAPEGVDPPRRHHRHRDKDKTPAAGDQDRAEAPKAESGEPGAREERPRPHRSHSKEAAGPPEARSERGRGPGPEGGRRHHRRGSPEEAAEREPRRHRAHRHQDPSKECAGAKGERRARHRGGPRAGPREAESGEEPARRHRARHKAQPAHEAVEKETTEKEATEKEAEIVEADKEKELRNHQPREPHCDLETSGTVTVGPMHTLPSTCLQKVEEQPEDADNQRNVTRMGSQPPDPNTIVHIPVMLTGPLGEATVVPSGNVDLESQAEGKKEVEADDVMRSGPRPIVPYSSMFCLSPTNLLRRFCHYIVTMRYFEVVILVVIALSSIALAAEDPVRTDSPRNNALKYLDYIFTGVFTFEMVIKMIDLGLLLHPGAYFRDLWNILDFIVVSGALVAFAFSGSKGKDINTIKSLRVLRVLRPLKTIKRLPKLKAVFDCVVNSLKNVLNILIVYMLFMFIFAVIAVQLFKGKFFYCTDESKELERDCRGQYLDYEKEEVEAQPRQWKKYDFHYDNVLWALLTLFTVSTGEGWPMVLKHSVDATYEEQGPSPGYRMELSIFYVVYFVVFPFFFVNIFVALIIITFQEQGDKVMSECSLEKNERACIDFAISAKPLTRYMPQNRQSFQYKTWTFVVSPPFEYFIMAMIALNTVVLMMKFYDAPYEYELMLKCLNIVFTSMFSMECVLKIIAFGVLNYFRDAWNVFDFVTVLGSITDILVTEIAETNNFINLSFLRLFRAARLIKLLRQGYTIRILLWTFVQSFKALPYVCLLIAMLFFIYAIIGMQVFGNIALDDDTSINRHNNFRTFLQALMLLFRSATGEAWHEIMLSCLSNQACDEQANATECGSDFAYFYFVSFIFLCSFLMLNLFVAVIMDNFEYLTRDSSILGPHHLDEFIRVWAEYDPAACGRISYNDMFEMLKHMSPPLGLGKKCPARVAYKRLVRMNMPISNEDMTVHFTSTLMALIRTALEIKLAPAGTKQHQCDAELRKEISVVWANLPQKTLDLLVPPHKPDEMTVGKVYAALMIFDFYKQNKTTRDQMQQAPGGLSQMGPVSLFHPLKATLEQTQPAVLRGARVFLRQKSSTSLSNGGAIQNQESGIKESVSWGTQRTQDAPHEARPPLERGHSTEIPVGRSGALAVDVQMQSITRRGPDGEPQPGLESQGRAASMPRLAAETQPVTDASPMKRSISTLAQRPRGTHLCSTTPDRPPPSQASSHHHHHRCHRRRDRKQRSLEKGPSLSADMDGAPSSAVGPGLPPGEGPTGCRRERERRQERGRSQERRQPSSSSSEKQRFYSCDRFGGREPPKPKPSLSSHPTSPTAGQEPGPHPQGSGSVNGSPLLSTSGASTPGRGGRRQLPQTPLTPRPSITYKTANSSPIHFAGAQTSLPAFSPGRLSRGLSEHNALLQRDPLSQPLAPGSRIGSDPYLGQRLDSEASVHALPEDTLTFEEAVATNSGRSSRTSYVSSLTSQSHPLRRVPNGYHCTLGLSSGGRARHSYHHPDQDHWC
T1 sequence (Q02410 whole entry): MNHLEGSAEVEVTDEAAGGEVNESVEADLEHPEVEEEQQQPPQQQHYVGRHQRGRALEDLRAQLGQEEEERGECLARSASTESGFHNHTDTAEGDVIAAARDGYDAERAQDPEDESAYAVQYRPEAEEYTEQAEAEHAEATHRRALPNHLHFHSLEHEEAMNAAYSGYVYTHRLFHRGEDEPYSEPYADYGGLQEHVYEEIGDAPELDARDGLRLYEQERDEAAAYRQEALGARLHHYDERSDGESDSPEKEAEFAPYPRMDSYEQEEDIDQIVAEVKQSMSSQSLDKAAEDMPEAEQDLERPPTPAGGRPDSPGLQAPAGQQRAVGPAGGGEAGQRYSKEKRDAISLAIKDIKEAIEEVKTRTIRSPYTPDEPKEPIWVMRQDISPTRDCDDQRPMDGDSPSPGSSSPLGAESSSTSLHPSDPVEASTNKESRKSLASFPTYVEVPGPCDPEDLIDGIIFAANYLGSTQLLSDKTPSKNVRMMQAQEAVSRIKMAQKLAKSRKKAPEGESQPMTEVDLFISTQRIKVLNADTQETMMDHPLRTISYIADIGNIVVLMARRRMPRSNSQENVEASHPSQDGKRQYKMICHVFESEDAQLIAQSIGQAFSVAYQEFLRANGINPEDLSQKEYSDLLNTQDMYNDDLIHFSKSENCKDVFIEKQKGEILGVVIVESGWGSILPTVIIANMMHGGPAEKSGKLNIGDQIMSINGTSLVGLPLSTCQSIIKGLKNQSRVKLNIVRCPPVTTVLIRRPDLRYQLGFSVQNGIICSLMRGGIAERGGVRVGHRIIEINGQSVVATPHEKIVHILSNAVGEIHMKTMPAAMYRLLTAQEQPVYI

Structure (SMILES): COc1cc(NC(=O)c2cccc(F)c2)ccc1NC(=O)c1cc2ccccc2o1
IC50 [1]: 6.19 µM (active) | IC50 [2]: > 50 µM (inactive) | CC50 [3]: > 50 µM (active)

Structure (SMILES): COC(=O)Cc1c(C)c2ccc(OCc3nn[nH]n3)c(C)c2oc1=O
AC50 (CAAX prenyl protease 2 [4]): 24.6 µM (active) | AC50 (CAAX prenyl protease 1): 12.6 µM (active) | AC50 (CAAX prenyl protease 2 [5]): 29.6 µM (active) | AC50 (Trypsin): 21.3 µM (active)

Structure (SMILES): CCOc1cc(C2C(C#N)=C(N)OC(C)=C2C(C)=O)cc(Br)c1O (stereo not drawn)
EC50 [6]: 12.3 µM (inconclusive) | AC50 (Keap1/Nrf2): > 52 µM (inactive) | EC50 [7]: 12.3 µM (active)

Structure (SMILES): CC(OC(=O)c1cc2c(ccc3ccccc32)oc1=O)c1nc2ccccc2s1 (stereo not drawn)
EC50 (Beta-galactosidase): > 31.5 µM (inactive) | IC50 [8]: > 32 µM | EC50 [9]: > 32 µM (inactive) | IC50 [10]: 10.5 µM (active) | EC50 (Mu-type opioid receptor): > 32 µM (inactive) | IC50 [11]: > 32 µM (inactive) | IC50 (H9c2): > 79 µM (inactive)

Further lines, results first:

IC50 [1]: 0.212 µM (active) | AC50 (Cytochrome P450 2C19): 2 µM (inconclusive) | IC50 [2]: > 50 µM (inactive) | AC50 (Cytochrome P450 2D6): 6.31 µM (inconclusive)
Structure (SMILES): COc1ccccc1OCCOc1ccc(/C=C2/C(=N)N3OC(C)=CC3=NC2=O)cc1OC

AC50 (Cytochrome P450 2C19): 25.1 µM (inconclusive) | AC50 (Cytochrome P450 3A4): inconclusive
Structure (SMILES): COc1ccc(-c2cc(C(=O)Nc3cnn(Cc4ccccc4C)c3)no2)cc1OC
